From patent EP0912571B1, “NAPHTHYRIDINES WHICH AFFECT IL-4 AND G-CSF” (SCHERING CORPORATION, priority 1996, dated 1997)

Columns and labels:
[1] = system: human G-CSF production; assay: In vitro enhancement of G-CSF production in PHA-stimulated PBMNC's (ELISA of culture supernatant); type: cell-based; settings: PBMNC's with 5µg/ml PHA
Description: (§1) In order to determine the effect of compound AA on human G-CSF production, human peripheral blood mononuclear cells (PBMNC's) were prepared (as described in Ficoll-Paque: For in vitro isolation of lymphocytes (booklet) 1983 Pharmacia, Uppsala Sweden; which is hereby incorporated by reference) and cultured as described (in Oster et al, 1989 Blood 73:64. which is hereby incorporated by reference) with 5µg/ml phytohemagglutin (PHA) in the presence of varying concentrations of compound AA or vehicle (0.1% dimethylsulfoxide, DMSO). After 40 hours, culture supernatant was collected and cytokine levels measured by ELISA (R&D Systems, Minneapolis MN). Alternatively mRNA was prepared by standard protocols from these cells after 24 hour incubation, reverse-transcribed and subjected to polymerase chain reaction (PCR)

[2] = system: mice made neutropenic with CY; assay: Comparison of compound AA with rhG-CSF in the CY neutropenia model; type: in vivo; settings: compound AA at 40mg/kg daily, granulocyte levels in peripheral blood on day 5
Description: Exogeneous G-CSF administration is now standard therapy for patients undergoing a neutropenic episode In order to compare compound AA treatment with G-CSF therapy in the CY model described above, we administered either compound AA or recombinant human G-CSF daily to mice made neutropenic with CY. Granulocyte levels in peripheral blood were determined on day 5.

[3] = system: bone marrow steady-state G-CSF mRNA; assay: Endogenous G-CSF in CY-dosed mice: bone marrow steady-state G-CSF mRNA by PCR; type: in vivo; settings: CY-dosed mice administered compound AA
Description: Acceleration of neutrophil recovery by compound AA may occur by stimulating neutrophil development at the level of the bone marrow (see Demetri et al 1991 Blood 78: 2791).To confirm that compound AA was acting in vivo by enhancing endogenous G-CSF production, bone marrow steady-state G-CSF mRNA levels were determined by PCR.

[4] = system: TNFα, TNFβ, IL-1α, IL-1 β, IL-3, IL-6, IL-8, or GM-CSF; assay: Specificity: production of other cytokines in the PBMNC culture (ELISA); type: cell-based, human; settings: PHA-stimulated PBMNC's
Description: as §1
This effect was specific for G-CSF, since no change in the production of TNFα, TNFβ, IL-1α, IL-1 β, IL-3, IL-6, IL-8, or GM-CSF was observed.

[5] = system: G-CSF mRNA; assay: Steady-state G-CSF mRNA levels in stimulated cell cultures (reverse transcription, PCR); type: cell-based, human
[6] = system: BALB/cJ mice; assay: In vivo acceleration of recovery from neutropenia in cyclophosphamide-treated mice (flow cytometry of granulocytes); settings: for granulocyte recovery: return to normal numbers: 40 mg/kg daily from day 1 after single sublethal dose of CY on day 0
Description: To test the activity of compound AA in enhancing peripheral neutrophil numbers and accelerating recovery of the neutrophil compartment, BALB/cJ mice were rendered neutropenic by treatment with a single sublethal dose of CY on day 0. Mice were then treated daily, starting on day 1, with 40 mg/kg compound AA or vehicle (carboxymethyl cellulose CMC) and sacrificed on days 3, 5, 6, 8 or 10 and granulocyte populations in peripheral blood and spleen analyzed by flow cytometry. Granulocytes were detected using the RB6-8C5 antibody, specific for granulocytes (see Hestdal et al 1991 J. Immunol. 147:22. which is hereby incorporated by reference) and the Mac-1 antibody, specific for myeloid cells (see Springer et al JEur. J. lmmunol. 9: 301). […] Compound AA administration accelerated granulocyte recovery in both blood and spleen, with a return to normal numbers by day 5 in blood and day 4 in spleen. These granulocytes were confirmed to be exclusively segmented neutrophils by cytological examination. Neutrophil recovery was delayed by 1-2 days in CY-dosed mice given vehicle, compared to compound AA - treated animals. No changes in percentage or number of monocytes were observed.

[7] = 40 mg/kg daily, CY-treated mice

SMILES: CC(=O)Nc1ccc(S(=O)(=O)Nc2nc(-c3ncccc3C)cc3cccnc23)cc1 [compound AA]
- EC50 ([1]; Homo sapiens, G-CSF levels, 40 hours, read-out: effective concentration50 (EC50)): 15 µM
- increase in G-CSF levels ([1]; supernatant after 40 hours, ELISA): 4-5 fold
- ability to enhance peripheral blood neutrophil numbers versus 250mg/kg rhG-CSF [2]: comparable
- ability to enhance peripheral blood neutrophil numbers versus 50-125mg/kg rhG-CSF [2]: greater
- bone marrow G-CSF mRNA levels [3]: enhanced
- change in the production of TNFα, TNFβ, IL-1α, IL-1 β, IL-3, IL-6, IL-8, or GM-CSF [4]: no change
- Steady-state G-CSF mRNA levels ([5]; LPS-stimulated monocytes): increased
- Steady-state G-CSF mRNA levels ([5]; PHA-stimulated PBMNC's): increased
- delay of neutrophil recovery in CY-dosed mice given vehicle, compared to compound AA-treated animals ([6]; 40 mg/kg daily): 1 to 2 days
- changes in percentage or number of monocytes [6, 7]: No changes
- gross toxicity or abnormalities [6, 7]: No evidence of gross toxicity or abnormalities
- granulocyte recovery: return to normal numbers ([6]; blood): ≤ 5 days
- granulocyte recovery: return to normal numbers ([6]; spleen): ≤ 4 days
